The values that follow come from ChEMBL document CHEMBL3351995, “β-Nitro substituted carboxylic acids and their cytotoxicity” (Bioorg Med Chem Lett, 2014).

Active and inactive are the calls of the source. The rule behind the calls is not given here.

The subject of one test is A549. Briefly: Cytotoxicity against human A549 cells by SRB assay. It is filed as functional, cell-based.
Test [1] can be described thus: Cytotoxicity against human A253 cells by SRB assay. It is filed as functional, cell-based. On the technique in general: Sulforhodamine B stains cellular protein and so reports cell mass.
The subject of another test is A2780. Briefly: Cytotoxicity against human A2780 cells by SRB assay. Type of test: functional, cell-based.
Test [2] can be described thus: Cytotoxicity against human SW1736 cells by SRB assay. Conditions: SW-1736. Type of test: functional, cell-based.
Test [3] is described as follows: Cytotoxicity against human 518A2 cells by SRB assay. It is filed as functional, cell-based.
A further test relates to 8505C. Briefly: Cytotoxicity against human 8505C cells by SRB assay. It is filed as functional, cell-based.
The next test deals with MCF7. Description: Cytotoxicity against human MCF7 cells by SRB assay. Type of test: functional, cell-based.
The nature of test [4]: Cytotoxicity against human Lipo cells by SRB assay. Type of test: functional, cell-based.
Test [5] is described as follows: Cytotoxicity against mouse NIH/3T3 cells by SRB assay. Type of test: cell-based. The following applies: NIH3T3.
Test [6] in a line: Cytotoxicity against human DLD1 cells by SRB assay. It is filed as functional, cell-based. The following applies: DLD-1.
Test [7] relates to 518A2. Briefly: Induction of apoptosis in human 518A2 cells assessed as secondary necrotic cells at 35 uM after 48 or 72 hrs by annexin V-FITC/propidium iodide staining-based flow cytometry. Type of test: functional.
Test [8] relates to 518A2. Description: Induction of apoptosis in human 518A2 cells assessed as secondary necrotic cells at 35 uM after 24 hrs by fluorescence microscopy. It is filed as functional, cell-based.
The subject of test [9] is 518A2. Description: Induction of apoptosis in human 518A2 cells assessed as apoptotic ells at 35 uM after 48 or 72 hrs by annexin V-FITC/propidium iodide staining-based flow cytometry. Type of test: functional. Background: A flow cytometer gives signals particle by particle.
The subject of test [10] is 518A2. Briefly: Induction of apoptosis in human 518A2 cells assessed as necrotic cells at 35 uM after 48 or 72 hrs by annexin V-FITC/propidium iodide staining-based flow cytometry. It is filed as functional.
The test system of test [11] is 518A2. Briefly: Induction of apoptosis in human 518A2 cells assessed as normal cells at 35 uM after 48 or 72 hrs by annexin V-FITC/propidium iodide staining-based flow cytometry. It is filed as functional.

As to `CCOC(=O)C(C[N+](=O)[O-])c1ccc(C)cc1` (stereo not given), the IC50 (in the test with A549; in test [1]; in the test on A2780; in [2]; in test [3]; in the test on 8505C) was > 30 µM throughout. Moreover, the concentration for half-maximal inhibition (IC50) (with MCF7; in test [4]; in test [5]; in test [6]) was > 30 µM each time.

On to `CCOC(=O)C(C[N+](=O)[O-])c1ccc(C(F)(F)F)cc1` (stereo not given), for which the IC50 – broadly, the concentration at which inhibition is half-maximal – is 9.9 µM in the test on A549; 9.8 µM in test [1]; 6.6 µM with A2780; 6.3 µM in test [2]; 15.2 µM in test [3]; 13.8 µM in the test on 8505C. For the same compound, the IC50 with MCF7 amounted to 6.7 µM; in test [4], 15.2 µM; in test [5], 9.7 µM; in test [6], 11 µM.

Take `CCOC(=O)C(C[N+](=O)[O-])c1cccc(OC(F)(F)F)c1` (stereo not given): the IC50 with A549 is 19.9 µM; in [1], 11.8 µM; in the test on A2780, 2.2 µM; in [2] it was 16.6 µM; in test [3], 14.5 µM; in the test with 8505C, 22.1 µM. The IC50 (in the test on MCF7; in [4]; in test [5]; in test [6]) was > 30 µM each time.

For the compound `CCOC(=O)C(C[N+](=O)[O-])c1ccccc1` (stereo not given), the 50% inhibitory concentration (IC50) (in the test with A549; in test [1]; in the test with A2780; in test [2]; in test [3]; in the test with 8505C) was > 30 µM each time. The half-maximal inhibitory concentration (IC50) (with MCF7; in [4]; in [5]; in test [6]) was > 30 µM throughout.

In the case of `O=C(Cc1ccccc1)C(C[N+](=O)[O-])c1ccc(Cl)cc1` (stereo not given), the half-maximal inhibitory concentration (IC50) with A549 is > 30 µM; in test [1], 21.4 µM; with A2780, 12.1 µM; in test [2], 23.9 µM; in test [3], 23.9 µM; in the test with 8505C, > 30 µM. Further, the IC50 in the test with MCF7 came out at 18.2 µM; in [4] it was 28.9 µM; in test [5] it was 9.2 µM; in test [6], 22.5 µM.

As to `CCOC(=O)C(C[N+](=O)[O-])c1cccc(C(F)(F)F)c1` (stereo not given), the IC50 in the test on A549 came out at 13.6 µM; in test [1], 7.2 µM; in the test with A2780, 6.3 µM; in test [2] it was 4.7 µM; in test [3], 8.6 µM; in the test on 8505C it was 20.7 µM. The IC50 was determined as 7.6 µM in the test on MCF7, 10.9 µM in test [4], 10.2 µM in test [5] and 8.2 µM in test [6].

As to `NC(=O)C(C[N+](=O)[O-])c1ccc(Cl)cc1` (stereo not given), the IC50 (in the test on A549; in test [1]; in the test with A2780; in test [2]; in test [3]; in the test on 8505C) was > 30 µM throughout. Besides, the IC50 (in the test on MCF7; in [4]; in test [5]; in test [6]) was > 30 µM throughout.

On to `COC(=O)C(C[N+](=O)[O-])c1ccc(Cl)cc1` (stereo not given), for which the concentration for half-maximal inhibition (IC50) with A549 was 10.5 µM; in [1], 5.4 µM; in the test on A2780, 2.5 µM; in test [2], 5.8 µM; in test [3], 5.8 µM; in the test with 8505C, 11.6 µM. In addition, the 50% inhibitory concentration (IC50) with MCF7 is 3.4 µM; in [4], 8.7 µM; in [5], 2.1 µM; in test [6] it was 5.2 µM.

Turning to `C=C(C#N)c1ccc(Cl)cc1`, the half-inhibitory concentration (IC50) in the test on A549 is > 30 µM; in [1], > 30 µM; in the test with A2780 it was 15.4 µM; in [2], > 30 µM; in test [3], > 30 µM; in the test with 8505C, > 30 µM. For the same compound, the IC50 with MCF7 was 14.2 µM; in test [4], > 30 µM; in test [5], 23.5 µM; in test [6], > 30 µM.

As for `CCOC(=O)C(C[N+](=O)[O-])c1ccc(Cl)cc1` (stereo not given), the 50% inhibitory concentration (IC50) is 14.9 µM with A549; > 30 µM in test [1]; 1.6 µM with A2780; > 30 µM in [2]; 17.3 µM in test [3]; > 30 µM in the test with 8505C. Also, the concentration for half-maximal inhibition (IC50) in the test with MCF7 was found to be 22.8 µM; in test [4] it was 19.2 µM; in test [5], 7.7 µM; in test [6] it was 10.9 µM. Also, the Activity came out at 12.222% in the test with 518A2 [7], 3.224% in the test on 518A2 [9], 2.883% in the test on 518A2 [10] and 22.72% with 518A2 [11]. The outcome in the test with 518A2 [8] was Active.

As to `CCOC(=O)C(C[N+](=O)[O-])c1ccc(F)cc1` (stereo not given), the half-maximal inhibitory concentration (IC50) (in the test with A549; in test [1]; with A2780; in [2]; in test [3]; in the test with 8505C) was > 30 µM throughout. The IC50 (in the test with MCF7; in test [4]; in test [5]; in test [6]) was > 30 µM throughout.

As for `CCOC(=O)C(C)(C[N+](=O)[O-])c1ccc(Cl)cc1` (stereo not given), the half-inhibitory concentration (IC50) (in the test on A549; in [1]; in the test on A2780; in [2]; in test [3]; in the test on 8505C) was > 30 µM each time. The IC50 (in the test on MCF7; in test [4]; in [5]; in test [6]) was > 30 µM throughout.

Regarding `CCOC(=O)C(CN)c1ccc(Cl)cc1` (stereo not given), the IC50 was > 30 µM in the test on A549; > 30 µM in test [1]; 22.3 µM with A2780; > 30 µM in test [2]; > 30 µM in test [3]; > 30 µM with 8505C. Moreover, the IC50 with MCF7 is > 30 µM; in [4], > 30 µM; in test [5], 25.7 µM; in [6] it was > 30 µM.

Regarding `CCOC(=O)C(C[N+](=O)[O-])c1ccccc1Cl` (stereo not given), the IC50 in the test with A549 is > 30 µM; in test [1] it was > 30 µM; with A2780, 9.9 µM; in test [2] it was > 30 µM; in test [3] it was > 30 µM; in the test with 8505C, > 30 µM. For the same compound, the concentration for half-maximal inhibition (IC50) (in the test on MCF7; in test [4]; in [5]; in test [6]) was > 30 µM throughout.

Take `CCOC(=O)C(C[N+](=O)[O-])c1cccc(Cl)c1` (stereo not given): the IC50 is 3.5 µM in the test on A549; 10.6 µM in test [1]; 14.4 µM in the test on A2780; 8.3 µM in test [2]; 7.3 µM in test [3]; 14.9 µM with 8505C. Besides, the IC50 in the test on MCF7 came out at 17.9 µM; in test [4], 19.5 µM; in [5] it was 21.1 µM; in test [6], 14.5 µM.

On to `CN(C)C(=O)C(C[N+](=O)[O-])c1ccc(Cl)cc1` (stereo not given), for which the IC50 (in the test with A549; in test [1]; in the test on A2780; in test [2]; in test [3]; with 8505C) was > 30 µM in each case. Moreover, the IC50 (with MCF7; in test [4]; in test [5]; in test [6]) was > 30 µM in each case.

On to `CCOC(=O)C(C[N+](=O)[O-])c1ccc(OC)cc1` (stereo not given), for which the 50% inhibitory concentration (IC50) (with A549; in test [1]; in the test with A2780; in test [2]; in test [3]; in the test with 8505C) was > 30 µM throughout. Besides, the 50% inhibitory concentration (IC50) (with MCF7; in test [4]; in test [5]; in test [6]) was > 30 µM each time.
